Experimental data: publication PMC12070314, “Efficient Small-Molecule Reversal Agents for Anticoagulant Fondaparinux” (ACS Pharmacology & Translational Science, 2025)

Key:
[1] = tested on: FXa/ATIII inhibited by LMWH; experiment: In vitro FXa/ATIII enzymatic assay with LMWH; type: biochemical, human; conditions: [LMWH] = [antidote] = 0.1 or 10 μM, Figure S3
Description: Recombinant antithrombin III and coagulation factor Xa were obtained from two different kits, Berichrom Heparin test (SIEMENS) and Kinetichrome Anti-Xa Heparin kit (Iduron). Methods for both kits are similar, but not identical. Differences will be spotted by method A (SIEMENS) and method B (Iduron). Following the manufacturer’s instructions, stock solutions were prepared as follows: human antithrombin III (1 IU/mL) and factor Xa reagent (0.4 μg/mL, human plasma fraction with additives Tris, sodium chloride, and EDTA). Chromogenic substrate specific for factor Xa was dissolved at 4 mM concentration (A: Z-D-Leu-Gly-Arg-ANBA-methyl amide, and B: Z-D-Arg-Gly-Arg-pNA). Additionally, either 4-nitroaniline (A) or N-Boc-4-nitroaniline (B) was added to the substrate solution at a concentration of 1.6 mM and used as an internal standard to quantify the hydrolysis of the chromogenic substrate. All compounds were dissolved in Milli-Q water at the desired stock concentrations prior to start of the assays and kept at 4 °C. […] FXa/ATIII activity was represented as the percent of hydrolysis, which was calculated from the normalized area of the cleaved peptide at 405 nm at each corresponding time point. […]

[2] = NMR titration and DOSY binding study with fondaparinux; conditions: water (D2O buffer), neutral pH
Source text: The [3AC–fond] binding was additionally studied by NMR. Titration of fond with 3AC modifies several ^1H and ^13C NMR signals that can be readily monitored by ^1H and ^1H–^13C HSQC NMR experiments (Figures and S5–S7). A close analysis of the corresponding chemical-shift perturbations (Figures C and S8) allows determination of the sugar rings to be more affected by the presence of the ligand (see the chemical structure with arbitrary labeling of the rings in Figure A). We hypothesized that [fond–3AC] binding occurs by polar interactions (through the ammonium and OH groups of 3AC with sulfate, carboxylate, and OH residues of fond) and nonpolar contacts (by CH–π interactions between aromatic rings of 3AC and pyranose CH bonds of fond). […] The corresponding ^1H NMR spectra in 90% H2O/10% D2O at pH 8.2 and 288 K allow detection of the NH-sulfamate protons (Figures D and S9) and confirmed the stronger perturbation of ring V. The conformational behavior of fond in the absence and presence of 3AC was additionally studied by acquiring a series of 2D NOESY and 2D ROESY spectra (Figures S10–S13). […]
One- and two-dimensional (1D and 2D) NMR experiments were performed at 298 K on a 500 MHz Bruker AVANCE III HD instrument equipped with a z-gradient (65.7 G cm^–1) inverse TCI-cryoprobe. Samples were dissolved in 5 mM Tris-d11 buffer with 50 mM NaCl (in D2O, pH 7.5, uncorrected pH meter reading). […]

## Oc1ccc2ccccc2c1CNCCCNCCCCNCCCNCc1c(O)ccc2ccccc12 [Compound 3FF]
[1]
  Percent recovery of peptide substrate hydrolysis vs LMWH: more active than prot and similar to cir
[2]
  Binding to fond by NMR: slightly weaker binding

## Oc1ccccc1CNCCCNCCCCNCCCNCc1ccc2c(c1)Cc1ccccc1-2 [Compound 3AC]
[1]
  Percent recovery of peptide substrate hydrolysis vs LMWH: more active than prot and similar to cir
[2]
  Binding to fond by NMR: strong binding
